The values below come from patent US20240083886A1, “HETEROCYCLIC GLP-1 AGONISTS” (Gasherbrum Bio, Inc., priority 2020, published 2024).

In one experiment the target is GLP-1 Receptor (Homo sapiens, UniProt P43220). Nature of the experiment: GLP-1R agonist cAMP stimulation assay. The class given is cell-based.
Chain of GLP-1 Receptor (P43220 24-463, species assumed): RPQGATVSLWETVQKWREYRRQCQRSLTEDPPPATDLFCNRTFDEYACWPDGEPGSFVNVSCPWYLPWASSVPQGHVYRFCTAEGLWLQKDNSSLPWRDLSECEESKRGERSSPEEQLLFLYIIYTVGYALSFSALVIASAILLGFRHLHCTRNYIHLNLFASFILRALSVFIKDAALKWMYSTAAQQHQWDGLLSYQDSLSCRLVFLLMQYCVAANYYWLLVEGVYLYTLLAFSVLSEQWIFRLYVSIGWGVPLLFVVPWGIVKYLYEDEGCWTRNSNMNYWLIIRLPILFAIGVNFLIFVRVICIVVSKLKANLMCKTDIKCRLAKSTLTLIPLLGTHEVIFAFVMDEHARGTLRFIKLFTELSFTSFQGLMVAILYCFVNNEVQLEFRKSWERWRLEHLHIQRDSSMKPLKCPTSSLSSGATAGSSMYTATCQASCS
Conditions: not given
The procedure: Activation of GLP-1 receptor is known to stimulate cyclic AMP (cAMP) production in cells which indicates primary coupling to the Gαs subunit of the G protein heterotrimeric complex.
To optimize functional activity directed toward Gαs coupling, a HEK293/CRE-Luc cell line developed by HDB stably expressing the GLP-1 Receptor was used. 200× concentration of compound working solutions were prepared (Agilent Technologies Bravo) with ½ log serial dilution in 384-well Echo LDV plate (Labcyte, Cat #LP-0200). 50 nL/well 200× concentration of compound working solutions were moved to 384-well white low volume plate (Greiner, Cat #784075) using Labcyte ECHO550. 1×10^5 cells/mL HEK293/GLP1R/CRE-LUC(HD Biosciences) cell suspensions prepared with assay buffer[DPBS containing 0.5 mM IBMX(Sigma, Cat #15879) and 0.1% BSA (GENVIEW, Cat #FA016-100 g)], 10 uL cell suspensions were added to each well of previous generated assay plate which already contains 50 nl compound at 200×concentration using ThermoFisher Multidrop Combi (1000 cells/well). Seal the plate and incubate at 37° C. with 5% CO2 for 30 min.
After incubation the cAMP assay signal was generated using cAMP dynamic 2 Kit (Cisbio). 5 μL cAMP-d2 working solution was added to each well, followed with 5 μL Anti-cAMP antibody-cryptate working solution added to each well using ThermoFisher Multidrop Combi. Incubate at room temperature for 1 hour protected from light. Read the fluorescence at 665 and 615 nm with Reader PerkinElmer EnVision.
% Activity=100%×(mean RLU of test sample−mean RLU of vehicle control)/(mean RLU of MAX control−mean RLU of vehicle control))
In general, EC50 refers to the concentration needed to bring the measured effect to its halfway point. Regarding `FC(F)(F)c1nnc(-c2ccc3c(c2)nc(CN2CCC(Oc4ccnc(Cc5ccc(Cl)cc5)n4)CC2)n3C[C@@H]2CCO2)[nH]1` [Compound 106a, 2-{[4-({2-[(4-chlorophenyl)methyl]pyrimidin-4-yl}oxy)piperidin-1-yl]methyl}-1-{[(2S)-oxetan-2-yl]methyl}-5-[5-(trifluoromethyl)-4H-1,2,4-triazol-3-yl]-1H-1,3-benzodiazole], the response was half-maximal at 0.098 nM (EC50). On to `Fc1cc(Cl)ccc1Cc1nccc(OC2CCN(Cc3nc4cc(/C=C/c5cccnc5)ccc4n3C[C@@H]3CCO3)CC2)n1` [Compound 118a, 2-{[4-({2-[(4-chloro-2-fluorophenyl)methyl]pyrimidin-4-yl}oxy)piperidin-1-yl]methyl}-1-{[(2S)-oxetan-2-yl]methyl}-5-[(1E)-2-(pyridin-3-yl)ethenyl]-1H-1,3-benzodiazole], for which the EC50 was 44 nM. Turning to `FC(F)(F)c1nnc(-c2cnc3c(c2)nc(CN2CCC(Oc4ccnc(Cc5ccc(Cl)cc5)n4)CC2)n3C[C@@H]2CCO2)[nH]1` [Compound 120a, 2-[(4-chlorophenyl)methyl]-4-({1-[(3-{[(2S)-oxetan-2-yl]methyl}-6-[5-(trifluoromethyl)-4H-1,2,4-triazol-3-yl]-3H-imidazo[4,5-b]pyridin-2-yl)methyl]piperidin-4-yl}oxy)pyrimidine], the concentration giving a half-maximal response (EC50) stood at 0.17 nM.

The same experiment, now with this note: HEK293/GLP1R/CRE-LUC cells, cAMP dynamic 2 Kit (Cisbio), 30 min incubation at 37° C.; read-out: EC50.
As for `Cc1cncc(C(=O)Nc2ccc3c(c2)nc(CN2CCC(Oc4ccnc(Cc5ccc(Cl)cc5)n4)CC2)n3C[C@@H]2CCO2)c1` [Compound 101a, N-(2-{[4-({2-[(4-chlorophenyl)methyl]pyrimidin-4-yl}oxy)piperidin-1-yl]methyl}-1-{[(2S)-oxetan-2-yl]methyl}-1H-1,3-benzodiazol-5-yl)-5-methylpyridine-3-carboxamide], the concentration giving a half-maximal response (EC50) was 0.081 nM. Still for that read-out and setting: the result for `O=C(Nc1ccc2c(c1)nc(CN1CCC(Oc3ccnc(Cc4ccc(Cl)cc4)n3)CC1)n2C[C@@H]1CCO1)c1cccnc1` [Compound 102a, N-(2-{[4-({2-[(4-chlorophenyl)methyl]pyrimidin-4-yl}oxy)piperidin-1-yl]methyl}-1-{[(2S)-oxetan-2-yl]methyl}-1H-1,3-benzodiazol-5-yl)pyridine-3-carboxamide] reads 0.31 nM; that for `Cc1ncccc1C(=O)Nc1ccc2c(c1)nc(CN1CCC(Oc3ccnc(Cc4ccc(Cl)cc4)n3)CC1)n2C[C@@H]1CCO1` [Compound 103a, N-(2-{[4-({2-[(4-chlorophenyl)methyl]pyrimidin-4-yl}oxy)piperidin-1-yl]methyl}-1-{[(2S)-oxetan-2-yl]methyl}-1H-1,3-benzodiazol-5-yl)-2-methylpyridine-3-carboxamide], 0.093 nM. As to `Cc1ccc(C(=O)Nc2ccc3c(c2)nc(CN2CCC(Oc4ccnc(Cc5ccc(Cl)cc5)n4)CC2)n3C[C@@H]2CCO2)cn1` [Compound 104a, N-(2-{[4-({2-[(4-chlorophenyl)methyl]pyrimidin-4-yl}oxy)piperidin-1-yl]methyl}-1-{[(2S)-oxetan-2-yl]methyl}-1H-1,3-benzodiazol-5-yl)-6-methylpyridine-3-carboxamide], the EC50 amounted to 1.1 nM. In the case of `Cc1ccncc1C(=O)Nc1ccc2c(c1)nc(CN1CCC(Oc3ccnc(Cc4ccc(Cl)cc4)n3)CC1)n2C[C@@H]1CCO1` [Compound 105a, N-(2-{[4-({2-[(4-chlorophenyl)methyl]pyrimidin-4-yl}oxy)piperidin-1-yl]methyl}-1-{[(2S)-oxetan-2-yl]methyl}-1H-1,3-benzodiazol-5-yl)-4-methylpyridine-3-carboxamide], the EC50 was determined as 5.8 nM. Same read-out and setting: the result for `Clc1ccc(Cc2nccc(OC3CCN(Cc4nc5cc(-c6nnn[nH]6)ccc5n4C[C@@H]4CCO4)CC3)n2)cc1` [Compound 107a, 2-{[4-({2-[(4-chlorophenyl)methyl]pyrimidin-4-yl}oxy)piperidin-1-yl]methyl}-1-{[(2S)-oxetan-2-yl]methyl}-5-(1H-1,2,3,4-tetrazol-5-yl)-1H-1,3-benzodiazole] reads 0.2 nM; that for `O=c1[nH]c(-c2ccc3c(c2)nc(CN2CCC(Oc4ccnc(Cc5ccc(Cl)cc5)n4)CC2)n3C[C@@H]2CCO2)no1` [Compound 108a, 3-(2-{[4-({2-[(4-chlorophenyl)methyl]pyrimidin-4-yl}oxy)piperidin-1-yl]methyl}-1-{[(2S)-oxetan-2-yl]methyl}-1H-1,3-benzodiazol-5-yl)-4,5-dihydro-1,2,4-oxadiazol-5-one], 0.38 nM.

On to `O=c1[nH]c(-c2ccc3c(c2)nc(CN2CCC(Oc4cccc(Cc5ccc(Cl)cc5F)n4)CC2)n3C[C@@H]2CCO2)no1` [Compound 109a], for which the EC50 amounted to 15 nM. Still for that read-out and setting: next, `Fc1cc(Cl)ccc1Cc1cccc(OC2CCN(Cc3nc4cc(-c5nnn[nH]5)ccc4n3C[C@@H]3CCO3)CC2)n1` [Compound 110a, 2-{[4-({6-[(4-chloro-2-fluorophenyl)methyl]pyridin-2-yl}oxy)piperidin-1-yl]methyl}-1-{[(2S)-oxetan-2-yl]methyl}-5-(1H-1,2,3,4-tetrazol-5-yl)-1H-1,3-benzodiazole]: 0.38 nM; `O=C(Nc1ccc2c(c1)nc(CN1CCC(Oc3ccnc(Cc4ccc(Cl)cc4F)n3)CC1)n2C[C@@H]1CCO1)c1cccnc1` [Compound 111a, N-(2-{[4-({2-[(4-chloro-2-fluorophenyl)methyl]pyrimidin-4-yl}oxy)piperidin-1-yl]methyl}-1-{[(2S)-oxetan-2-yl]methyl}-1H-1,3-benzodiazol-5-yl)pyridine-3-carboxamide]: 0.089 nM. Same read-out and setting: next, `COc1ccc(C(=O)Nc2ccc3c(c2)nc(CN2CCC(Oc4ccnc(Cc5ccc(Cl)cc5F)n4)CC2)n3C[C@@H]2CCO2)cn1` [Compound 112a, N-(2-{[4-({2-[(4-chloro-2-fluorophenyl)methyl]pyrimidin-4-yl}oxy)piperidin-1-yl]methyl}-1-{[(2S)-oxetan-2-yl]methyl}-1H-1,3-benzodiazol-5-yl)-6-methoxypyridine-3-carboxamide]: 0.37 nM; `Cc1ccc(C(=O)Nc2ccc3c(c2)nc(CN2CCC(Oc4ccnc(Cc5ccc(Cl)cc5F)n4)CC2)n3C[C@@H]2CCO2)cn1` [Compound 113a, N-(2-{[4-({2-[(4-chloro-2-fluorophenyl)methyl]pyrimidin-4-yl}oxy)piperidin-1-yl]methyl}-1-{[(2S)-oxetan-2-yl]methyl}-1H-1,3-benzodiazol-5-yl)-6-methylpyridine-3-carboxamide]: 0.18 nM; `CCc1ccc(C(=O)Nc2ccc3c(c2)nc(CN2CCC(Oc4ccnc(Cc5ccc(Cl)cc5F)n4)CC2)n3C[C@@H]2CCO2)cn1` [Compound 114a, N-(2-{[4-({2-[(4-chloro-2-fluorophenyl)methyl]pyrimidin-4-yl}oxy)piperidin-1-yl]methyl}-1-{[(2S)-oxetan-2-yl]methyl}-1H-1,3-benzodiazol-5-yl)-6-ethylpyridine-3-carboxamide]: 1.6 nM. For `COCCOc1ccc(C(=O)Nc2ccc3c(c2)nc(CN2CCC(Oc4ccnc(Cc5ccc(Cl)cc5F)n4)CC2)n3C[C@@H]2CCO2)cn1` [Compound 115a, N-(2-{[4-({2-[(4-chloro-2-fluorophenyl)methyl]pyrimidin-4-yl}oxy)piperidin-1-yl]methyl}-1-{[(2S)-oxetan-2-yl]methyl}-1H-1,3-benzodiazol-5-yl)-6-(2-methoxyethoxy)pyridine-3-carboxamide], the EC50 is 2.7 nM. Regarding `CC(C)c1ccc(C(=O)Nc2ccc3c(c2)nc(CN2CCC(Oc4ccnc(Cc5ccc(Cl)cc5F)n4)CC2)n3C[C@@H]2CCO2)cn1` [Compound 116a, N-(2-{[4-({2-[(4-chloro-2-fluorophenyl)methyl]pyrimidin-4-yl}oxy)piperidin-1-yl]methyl}-1-{[(2S)-oxetan-2-yl]methyl}-1H-1,3-benzodiazol-5-yl)-6-(propan-2-yl)pyridine-3-carboxamide], the concentration for a half-maximal effect (EC50) was determined as 11 nM.

As for `O=C(Nc1ccc2c(c1)nc(CN1CCC(Oc3ccnc(Cc4ccc(Cl)cc4F)n3)CC1)n2C[C@@H]1CCO1)c1ccc(C2CC2)nc1` [Compound 117a, N-(2-{[4-({2-[(4-chloro-2-fluorophenyl)methyl]pyrimidin-4-yl}oxy)piperidin-1-yl]methyl}-1-{[(2S)-oxetan-2-yl]methyl}-1H-1,3-benzodiazol-5-yl)-6-cyclopropylpyridine-3-carboxamide], the EC50 was determined as 5.9 nM.

`O=C(Nc1ccc2c(c1)nc(CN1CCC(Oc3ccnc(Cc4ccc(Cl)cc4F)n3)CC1)n2C[C@@H]1CCO1)c1ccc(-c2ccccc2)nc1` [Compound 119a, N-(2-{[4-({2-[(4-chloro-2-fluorophenyl)methyl]pyrimidin-4-yl}oxy)piperidin-1-yl]methyl}-1-{[(2S)-oxetan-2-yl]methyl}-1H-1,3-benzodiazol-5-yl)-6-phenylpyridine-3-carboxamide]: the 50% effective concentration (EC50) was 43 nM. Consider `Fc1cnc(Cc2ccc(Cl)cc2)nc1OC1CCN(Cc2nc3cc(-c4nnc(C(F)(F)F)[nH]4)cnc3n2C[C@@H]2CCO2)CC1` [Compound 121a, 2-[(4-chlorophenyl)methyl]-5-fluoro-4-({1-[(3-{[(2S)-oxetan-2-yl]methyl}-6-[5-(trifluoromethyl)-4H-1,2,4-triazol-3-yl]-3H-imidazo[4,5-b]pyridin-2-yl)methyl]piperidin-4-yl}oxy)pyrimidine], for which the EC50 was 0.5 nM.
